# Target: T1, α1A adrenoceptor (prostate) (Rattus norvegicus, UniProt P43140)
# T1 construct: from tissue; host or cells: isolated prostate tissue
# T1 sequence (P43140 1-466): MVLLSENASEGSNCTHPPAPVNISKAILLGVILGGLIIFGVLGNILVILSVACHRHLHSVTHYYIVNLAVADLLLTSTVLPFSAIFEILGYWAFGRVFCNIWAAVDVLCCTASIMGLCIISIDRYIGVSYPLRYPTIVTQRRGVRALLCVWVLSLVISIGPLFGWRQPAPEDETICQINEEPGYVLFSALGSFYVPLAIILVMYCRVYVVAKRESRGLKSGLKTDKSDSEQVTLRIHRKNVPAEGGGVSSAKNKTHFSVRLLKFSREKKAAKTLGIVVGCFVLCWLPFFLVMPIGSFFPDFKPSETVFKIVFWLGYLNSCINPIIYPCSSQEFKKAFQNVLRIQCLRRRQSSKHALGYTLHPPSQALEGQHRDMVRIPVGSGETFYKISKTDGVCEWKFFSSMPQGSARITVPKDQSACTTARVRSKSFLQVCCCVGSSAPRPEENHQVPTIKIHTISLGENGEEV
# Assay: In vitro functional study, antagonism of phenylepinephrine-induced contraction of prostate
# Format: biochemical
# Conditions: for Selectivity α1A/α1B / Selectivity α1A/α1D: functional assays, from pKB values; for Kb: prostate, phenylepinephrine, tested compound at 0.1, 1 and 10 mM, read-out: α Adrenoceptor Subtype (pKB) α1A (converted)
# Text: In order to study selectivity of action of these compounds towards different α-adrenoceptor subtypes, the ability of these compounds to antagonise α1-adrenoceptor agonist induced contractile response on aorta (α1Dprostate (α1A and spleen (α1B was studied. Aorta and spleen tissues were isolated from urethane anaesthetised (1.5 gm/kg) male wistar rats. Isolated tissues were mounted in organ bath containing Krebs Henseleit buffer of following composition (mM): NaCl 118; KCl 4.7; CaCl2 2.5; MgSO4. 7H2O 1.2; NaHCO3 25; KH2PO41.2; glucose 11.5. Buffer was maintained at 37° C. and aereated with a mixture of 95% O2 and 5% CO2. A resting tension of 2 g (aorta) or 1 g (spleen and prostate)was applied to tissues. Contractile response was monitored using a force displacement transducer and recorded on chart recorders. Tissues were allowed to equilibrate for 2 hours. At the end of equilibration period, concentration response curves to norepinephrine (aorta) and phenylepinephrine (spleen and prostate) were obtained in absence and presence of tested compound (at concentration of 0.1,1 and 10 mM). Antagonist affinity was calculated and expressed as pKB vales in Table II.
Selectivity α1A/α1B,Selectivity α1A/α1D,Kb,Structure (SMILES)
355,13,0.0398 nM,"CCCOc1ccccc1N1CCN(CCCN2C(=O)C3CC=CCC3C2=O)CC1.Cl (stereo not drawn) [Compound 24, 2-[3-{4-(2-Propoxyphenyl)piperazin-1-yl}propyl]-3a,4,7,7a-tetrahydro-1H-isoindole-1,3(2H)-dione hydrochloride]"
47,15,0.112 nM,"CCOc1ccccc1N1CCN(CCCN2C(=O)C3CC=CCC3C2=O)CC1.Cl (stereo not drawn) [Compound 11, 2-[3-{4-(2-Ethoxyphenyl)piperazin-1-yl}propyl]-3a,4,7,7a-tetrahydro-1H-isoindole-1,3(2H)-dione hydrochloride]"
170,1,0.115 nM,"CC(C)Oc1ccccc1N1CCN(CCCN2C(=O)C3CC=CCC3C2=O)CC1.Cl (stereo not drawn) [Compound 23, 2-[3-{4-(2-Isopropoxyphenyl)piperazin-1-yl}propyl]-3a,4,7,7a-tetrahydro-1H-isoindole-1,3(2H)-dione hydrochloride]"
41,4,0.537 nM,"COc1ccccc1N1CCN(CCCN2C(=O)C3CC=CCC3C2=O)CC1.Cl (stereo not drawn) [Compound 01, 2-[3-{4-(2-Methoxyphenyl)piperazin-1-yl}propyl]-3a,4,7,7a-tetrahydro-1H-isoindole-1,3(2H)-dione hydrochloride]"
